In PMC12392461, “Beyond Estrogenicity: A Comparative Assessment of Bisphenol A and Its Alternatives in In Vitro Assays Questions Safety of Replacements” (Environmental Science & Technology, 2025):
Read-outs that look alike come from different tables or passages of the source.

What was measured:
Tox21 assays [1] = details: re-evaluated Tox21 data, ref Adamovsky et al 2024, cited from earlier work
Tox21 assays [2] = assay: Re-evaluated Tox21 data (Adamovsky et al.), REPBPA and SRbaseline; details: for REPBPA: Relative Effect Potency; for SRbaseline: Specificity Ratio;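 on all read-outs here: published Tox21 results reanalysed with a revised model predicting baseline toxicity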
Text: We also reanalyzed the Tox21 data of Adamovsky et al. with the updated baseline toxicity prediction model (Table S2).

Estrogen Receptor ERα = target: T1, Estrogen Receptor ERα (Homo sapiens, UniProt P03372); assay: cell-based; details: This Study
T1 sequence (P03372 311-547 limits assumed): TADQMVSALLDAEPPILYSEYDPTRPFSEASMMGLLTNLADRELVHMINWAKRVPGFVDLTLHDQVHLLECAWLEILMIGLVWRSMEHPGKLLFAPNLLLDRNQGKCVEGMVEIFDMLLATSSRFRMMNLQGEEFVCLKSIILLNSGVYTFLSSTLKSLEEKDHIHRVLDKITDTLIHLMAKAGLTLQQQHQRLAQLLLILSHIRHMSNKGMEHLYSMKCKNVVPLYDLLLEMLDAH
Text: All bioassay media components and the ERα-UAS-bla GripTite and PPARγ-UAS-bla cells were obtained from Thermo Fisher Scientific (Waltham, MA, USA). AREc32 reporter gene cells based on MCF7 were provided by C. Roland Wolf (Cancer Research UK); AhR CALUX cells (H4L7.5c2 derived from H4IIe) were provided by Michael Denison (UC Davis, USA); and SH-SY5Y cells were purchased from Sigma-Aldrich.
Cell culture conditions and bioassay protocols including response detection are provided in Text S2.1–2.4 and Table S3. − Cell viability was determined from cell confluency using an IncuCyte S3 Live-Cell Analysis System (Sartorius AG, Essen, Germany) before and after exposure, except for SH-SY5Y cells (live–dead staining with Nuclear Green LcS1 and propidium iodide, Abcam, UK). For metabolic activation experiments, cell viability was assessed using the ToxBLAzer DualScreen Kit (Thermo Fisher Scientific) to capture the remaining toxicity in ERα-UAS-bla GripTite after treatment with the aCYP catalyst (details in Text S2.4).
For ARE, the concentration that triggered an induction ratio of 1.5 (ECIR1.5) was used as the benchmark value, as detailed in Text S2.5. IC10 values also served as a threshold for data analysis in all assays; only concentrations below IC10 were considered when deriving EC10 or ECIR1.5.
The maximum efficacy (Emax%) refers to the maximum of the log–logistic concentration–response curve attained by test chemicals compared to the reference chemical’s maximum and was obtained for both ERα and PPARγ. […]
S2: Cell culture and bioassays
S2.1: Cell Culturing Conditions
All suppliers and sources are given in detail in SI-Excel S3. The bioassay media for the different assays were prepared as follows: Assay medium for ER alpha-UAS-bla GripTite (ERα) and […]
2% charcoal-stripped FBS, and 100 U/mL penicillin-streptomycin. […]
S2.2: Cell Seeding and Incubation. For all bioassays, cell suspensions in the respective assay medium were dispensed into each well of 384-well plates using a MultiFlo Dispenser (Biotek, (now Agilent), Winooski, VT, U.S.). After seeding, the plates were incubated at 37° C and 5% CO₂ for […]. The final cell densities and plate types were as follows: Black poly-D-lysine […]
6500 cells/well, ERα: 5000 cells/well. White 384-well plates with a clear bottom (Product No. […]
S2.3: Chemical Dosing and Assay Analysis Procedures.

ERα = details: ref Pelch et al 2019; cited from earlier work
[3] = Abiotic CYP (aCYP) oxidation, remaining parent compound (Cparent-Ratio)
Method: The mixtures were adjusted to a final volume of 100 μL with acetonitrile (ACN). The reaction mix was incubated for 15 min at 30 °C and 1000 rpm on a Bioshake iQ orbital shaker from QInstruments (Jena, Germany). Additionally, a mixture without test compounds was prepared as a control. Subsequently, 10 μL of the reaction mixture was transferred into a conical dosing vial and evaporated under a nitrogen flow.
For chemical analysis, 10 μL of the reaction mixture was concentrated under vacuum (CentriVap, Labconco, Kansas City, MO, USA), diluted to 1 mg/L in ACN or ethyl acetate. The chemical analysis of the reaction mixtures was performed using liquid chromatography (LC) and gas chromatography (GC) coupled with various detection techniques, preferably Multiple Reaction Monitoring (MRM). Data acquisition and processing were carried out using the software MassHunter. Quantification was based on external calibrations.
The Cparent-Ratio quantifies the extent of oxidation of the parent compound after the abiotic CYP reaction. It was calculated as the ratio of the parent compound concentration after oxidation (C parent, after oxidation) to its concentration before oxidation (C parent, before oxidation) as shown in eq . […] 8 Cparent‐Ratio=Cparent,after oxidation/Cparent,before oxidation

keratinocytes = test system: keratinocytes; design: method as in Son et al.; details: ref Son et al.; cited from earlier work
[4] = design: method as in ref EFSA; details: in vitro and in vivo data; ref EFSA; cited from earlier work
[5] = design: method as in ref 12 (ECHA); details: ref 12 (ECHA), cited from earlier work
[6] = TOX21_AR_LUC_MDAKB2_Antagonist_0,5nM_R1881
[7] = TOX21_PPARg_BLA_antagonist_ratio

Cc1cc(C(C)(C)c2ccc(O)c(C)c2)ccc1O [BPC]
EC10 (Tox21 assays [1]; ATG_PPARg_TRANS_up): 1.88 µM | EC10 (Tox21 assays [1]; [6]): 0.85 µM | EC10 (Tox21 assays [1]; [7]): 3.09 µM | REPBPA (Tox21 assays [2]; ATG_PPARg_TRANS_up): 0.85 | SRbaseline (Tox21 assays [2]; ATG_PPARg_TRANS_up): 17.78 | REPBPA (Tox21 assays [2]; [6]): 2.85 | SRbaseline (Tox21 assays [2]; [6]): 39.40 | SRbaseline (Tox21 assays [2]; [7]): 10.83

O=S(=O)(c1ccc(O)cc1)c1ccccc1O [24BPS]
Efficacy % (Estrogen Receptor ERα): 19.00% | EC10 (Estrogen Receptor ERα; ERα, in M): 1.98E-05 | REPBPA (Estrogen Receptor ERα; relative estrogenic potency vs BPA): 1.87E-02 | Efficacy % (ERα): 24.30%

O=S(=O)(c1ccc(O)cc1)c1ccccc1O [2, 4BPS]
% Loss ([3]; Table S9, loss of parent after aCYP oxidation): -4.66% | Cparent-Ratio Mean ([3]; Table S9, mean of two replicate experiments): 1.05 | Cparent-Ratio Rep.1 % ([3]; Table S9, replicate 1): 108.33% | Cparent-Ratio Rep.1 ([3]; Table S9, replicate 1, as fraction): 1.08 | Cparent-Ratio Rep.2 % ([3]; Table S9, replicate 2): 100.98% | Cparent-Ratio Rep.2 ([3]; Table S9, replicate 2, as fraction): 1.01

CC1(C)C(O)C(C)(C)C1O (centres unmarked) [TMCD, 2,2,4,4-tetramethyl-1,3-cyclobutanediol]
concentration with statistically significant reduced cell viability (keratinocytes): 350 µM | genotoxicity categorisation [4]: nongenotoxic | degradation in OECD guideline test 301B ([5]; aqueous solution): no degradation | time reported to remain stable [5]: 22 days | parent compound during aCYP oxidation [3]: remained unchanged
